{"source": "paper PMC10066365", "about": "“Nemacol is a small molecule inhibitor of C. elegans vesicular acetylcholine transporter with anthelmintic potential” (Nature Communications, 2023)", "system": "C. elegans", "assay": "C. elegans motor phenotype scoring on solid media (Punc/jerky-unc, coiled, paralyzed), wild-type young adults", "assay_type": "in vivo, Caenorhabditis elegans", "conditions": "for any phene, mean % fraction of young adults exhibiting any phenotype (coiled, jerky-Unc or paralyzed) / atypical locomotion (number of animals) / coiled (number of animals) / no phene (number of animals) / paralyzed (number of animals): one hour; for any phene, mean % fraction of young adults exhibiting any phenotype (coiled, jerky-Unc or paralyzed): mean of three biological replicates; for atypical locomotion (number of animals) / coiled (number of animals) / no phene (number of animals) / paralyzed (number of animals): young adults, 20 animals per trial, single replicate counts; for AVERAGES Fraction Coiled / AVERAGES Fraction Paralyzed / AVERAGES Fraction Punc: average of 3 replicates", "key": {"[1]": {"conditions": "15 μM, 30 min, single replicate"}, "[2]": {"conditions": "15 μM, 60 min, single replicate"}, "[3]": {"conditions": "15 μM, 90 min, single replicate"}, "[4]": {"conditions": "15 μM, 120 min, single replicate"}, "[5]": {"conditions": "15 μM, 240 min, single replicate"}, "[6]": {"conditions": "15 μM, 360 min, single replicate"}, "[7]": {"conditions": "30 μM, 30 min, single replicate"}, "[8]": {"conditions": "30 μM, 60 min, single replicate"}, "[9]": {"conditions": "30 μM, 90 min, single replicate"}}, "note": "Values joined by “and” are separate entries in the source; they are usually repeats but may differ in a detail not shown here. Equal entries are not always repeated."}
{"smiles": "O=[N+]([O-])c1ccc(N2CCN(CC3CC=CCC3)CC2)cc1", "note": "(centres unmarked) [Nemacol-4]", "values": [{"measurement": "any phene, mean % fraction of young adults exhibiting any phenotype (coiled, jerky-Unc or paralyzed)", "setting": "3.75uM", "result": 15, "unit": "%"}, {"measurement": "atypical locomotion (number of animals)", "setting": "3.75uM", "result": "0 and 4 and 11"}, {"measurement": "coiled (number of animals)", "setting": "3.75uM", "result": "0 and 1"}, {"measurement": "no phene (number of animals)", "setting": "3.75uM", "result": "20 and 14 and 8"}, {"measurement": "paralyzed (number of animals)", "setting": "3.75uM", "result": "0 and 1"}, {"measurement": "AVERAGES Fraction Coiled", "setting": "15 μM, 30 min", "result": 0.0}, {"measurement": "AVERAGES Fraction Paralyzed", "setting": "15 μM, 30 min", "result": 0.0}, {"measurement": "AVERAGES Fraction Punc", "setting": "15 μM, 30 min", "result": 0.222}, {"measurement": "C1 (number of animals)", "setting": "[1]", "result": 0}, {"measurement": "C2 (number of animals)", "setting": "[1]", "result": 0}, {"measurement": "Fraction Coiled", "setting": "[1]", "result": 0.0}, {"measurement": "Fraction Paralyzed", "setting": "[1]", "result": 0.0}, {"measurement": "Fraction Punc", "setting": "[1]", "result": "0.111 and 0.4"}, {"measurement": "NP (number of animals)", "setting": "[1]", "result": "16 and 11"}, {"measurement": "P (number of animals)", "setting": "[1]", "result": 0}, {"measurement": "Punc (number of animals)", "setting": "[1]", "result": "2 and 7"}, {"measurement": "AVERAGES Fraction Coiled", "setting": "15 μM, 60 min", "result": 0.0185}, {"measurement": "AVERAGES Fraction Paralyzed", "setting": "15 μM, 60 min", "result": 0.0}, {"measurement": "AVERAGES Fraction Punc", "setting": "15 μM, 60 min", "result": 0.426}, {"measurement": "C1 (number of animals)", "setting": "[2]", "result": 1}, {"measurement": "C2 (number of animals)", "setting": "[2]", "result": 0}, {"measurement": "Fraction Coiled", "setting": "[2]", "result": 0.0556}, {"measurement": "Fraction Paralyzed", "setting": "[2]", "result": 0.0}, {"measurement": "Fraction Punc", "setting": "[2]", "result": "0.4 and 0.6"}, {"measurement": "NP (number of animals)", "setting": "[2]", "result": "10 and 7"}, {"measurement": "P (number of animals)", "setting": "[2]", "result": 0}, {"measurement": "Punc (number of animals)", "setting": "[2]", "result": "7 and 11"}, {"measurement": "AVERAGES Fraction Coiled", "setting": "15 μM, 90 min", "result": 0.0}, {"measurement": "AVERAGES Fraction Paralyzed", "setting": "15 μM, 90 min", "result": 0.0}, {"measurement": "AVERAGES Fraction Punc", "setting": "15 μM, 90 min", "result": 0.352}, {"measurement": "C1 (number of animals)", "setting": "[3]", "result": 0}, {"measurement": "C2 (number of animals)", "setting": "[3]", "result": 0}, {"measurement": "Fraction Coiled", "setting": "[3]", "result": 0.0}, {"measurement": "Fraction Paralyzed", "setting": "[3]", "result": 0.0}, {"measurement": "Fraction Punc", "setting": "[3]", "result": 0.5}, {"measurement": "NP (number of animals)", "setting": "[3]", "result": 9}, {"measurement": "P (number of animals)", "setting": "[3]", "result": 0}, {"measurement": "Punc (number of animals)", "setting": "[3]", "result": 9}, {"measurement": "AVERAGES Fraction Coiled", "setting": "15 μM, 120 min", "result": 0.0185}, {"measurement": "AVERAGES Fraction Paralyzed", "setting": "15 μM, 120 min", "result": 0.0}, {"measurement": "AVERAGES Fraction Punc", "setting": "15 μM, 120 min", "result": 0.3}, {"measurement": "C1 (number of animals)", "setting": "[4]", "result": 0}, {"measurement": "C2 (number of animals)", "setting": "[4]", "result": 0}, {"measurement": "Fraction Coiled", "setting": "[4]", "result": 0.0}, {"measurement": "Fraction Paralyzed", "setting": "[4]", "result": 0.0}, {"measurement": "Fraction Punc", "setting": "[4]", "result": "0.333 and 0.4"}, {"measurement": "NP (number of animals)", "setting": "[4]", "result": "12 and 11"}, {"measurement": "P (number of animals)", "setting": "[4]", "result": 0}, {"measurement": "Punc (number of animals)", "setting": "[4]", "result": "6 and 7"}, {"measurement": "AVERAGES Fraction Coiled", "setting": "15 μM, 240 min", "result": 0.0185}, {"measurement": "AVERAGES Fraction Paralyzed", "setting": "15 μM, 240 min", "result": 0.0}, {"measurement": "AVERAGES Fraction Punc", "setting": "15 μM, 240 min", "result": 0.0741}, {"measurement": "C1 (number of animals)", "setting": "[5]", "result": 1}, {"measurement": "C2 (number of animals)", "setting": "[5]", "result": 0}, {"measurement": "Fraction Coiled", "setting": "[5]", "result": 0.0556}, {"measurement": "Fraction Paralyzed", "setting": "[5]", "result": 0.0}, {"measurement": "Fraction Punc", "setting": "[5]", "result": "0.0 and 0.167"}, {"measurement": "NP (number of animals)", "setting": "[5]", "result": 15}, {"measurement": "P (number of animals)", "setting": "[5]", "result": 0}, {"measurement": "Punc (number of animals)", "setting": "[5]", "result": "0 and 3"}, {"measurement": "AVERAGES Fraction Coiled", "setting": "15 μM, 360 min", "result": 0.0}, {"measurement": "AVERAGES Fraction Paralyzed", "setting": "15 μM, 360 min", "result": 0.0}, {"measurement": "AVERAGES Fraction Punc", "setting": "15 μM, 360 min", "result": 0.0}, {"measurement": "C1 (number of animals)", "setting": "[6]", "result": 0}, {"measurement": "C2 (number of animals)", "setting": "[6]", "result": 0}, {"measurement": "Fraction Coiled", "setting": "[6]", "result": 0.0}, {"measurement": "Fraction Paralyzed", "setting": "[6]", "result": 0.0}, {"measurement": "Fraction Punc", "setting": "[6]", "result": 0.0}, {"measurement": "NP (number of animals)", "setting": "[6]", "result": 18}, {"measurement": "P (number of animals)", "setting": "[6]", "result": 0}, {"measurement": "Punc (number of animals)", "setting": "[6]", "result": 0}, {"measurement": "Next Day Animals alive (moving fine)", "setting": "15 μM, next day, single replicate", "result": "alive, recovered"}, {"measurement": "any phene, mean % fraction of young adults exhibiting any phenotype (coiled, jerky-Unc or paralyzed)", "setting": "15uM", "result": 45, "unit": "%"}, {"measurement": "atypical locomotion (number of animals)", "setting": "15uM", "result": "4 and 2 and 5 and 8"}, {"measurement": "coiled (number of animals)", "setting": "15uM", "result": "0 and 1 and 6 and 3"}, {"measurement": "no phene (number of animals)", "setting": "15uM", "result": "16 and 15 and 17 and 18 and 0"}, {"measurement": "paralyzed (number of animals)", "setting": "15uM", "result": "0 and 9"}, {"measurement": "AVERAGES Fraction Coiled", "setting": "30 μM, 30 min", "result": 0.0556}, {"measurement": "AVERAGES Fraction Paralyzed", "setting": "30 μM, 30 min", "result": 0.0}, {"measurement": "AVERAGES Fraction Punc", "setting": "30 μM, 30 min", "result": 0.6}, {"measurement": "C1 (number of animals)", "setting": "[7]", "result": "0 and 2"}, {"measurement": "C2 (number of animals)", "setting": "[7]", "result": "1 and 0"}, {"measurement": "Fraction Coiled", "setting": "[7]", "result": "0.0556 and 0.0 and 0.111"}, {"measurement": "Fraction Paralyzed", "setting": "[7]", "result": 0.0}, {"measurement": "Fraction Punc", "setting": "[7]", "result": "0.6 and 0.444 and 0.7"}, {"measurement": "NP (number of animals)", "setting": "[7]", "result": "6 and 10 and 3"}, {"measurement": "P (number of animals)", "setting": "[7]", "result": 0}, {"measurement": "Punc (number of animals)", "setting": "[7]", "result": "11 and 8 and 13"}, {"measurement": "AVERAGES Fraction Coiled", "setting": "30 μM, 60 min", "result": 0.0752}, {"measurement": "AVERAGES Fraction Paralyzed", "setting": "30 μM, 60 min", "result": 0.0}, {"measurement": "AVERAGES Fraction Punc", "setting": "30 μM, 60 min", "result": 0.7}, {"measurement": "C1 (number of animals)", "setting": "[8]", "result": 0}, {"measurement": "C2 (number of animals)", "setting": "[8]", "result": "3 and 1 and 0"}, {"measurement": "Fraction Coiled", "setting": "[8]", "result": "0.167 and 0.0588 and 0.0"}, {"measurement": "Fraction Paralyzed", "setting": "[8]", "result": 0.0}, {"measurement": "Fraction Punc", "setting": "[8]", "result": "0.7 and 0.529 and 0.9"}, {"measurement": "NP (number of animals)", "setting": "[8]", "result": "2 and 7 and 1"}, {"measurement": "P (number of animals)", "setting": "[8]", "result": 0}, {"measurement": "Punc (number of animals)", "setting": "[8]", "result": "13 and 9 and 17"}, {"measurement": "AVERAGES Fraction Coiled", "setting": "30 μM, 90 min", "result": 0.0556}, {"measurement": "AVERAGES Fraction Paralyzed", "setting": "30 μM, 90 min", "result": 0.0556}, {"measurement": "AVERAGES Fraction Punc", "setting": "30 μM, 90 min", "result": 0.667}, {"measurement": "C1 (number of animals)", "setting": "[9]", "result": 0}, {"measurement": "C2 (number of animals)", "setting": "[9]", "result": "1 and 2 and 0"}, {"measurement": "Fraction Coiled", "setting": "[9]", "result": "0.0556 and 0.111 and 0.0"}, {"measurement": "Fraction Paralyzed", "setting": "[9]", "result": "0.167 and 0.0"}, {"measurement": "Fraction Punc", "setting": "[9]", "result": "0.7 and 0.5 and 0.8"}, {"measurement": "NP (number of animals)", "setting": "[9]", "result": "1 and 7 and 4"}, {"measurement": "P (number of animals)", "setting": "[9]", "result": "3 and 0"}, {"measurement": "Punc (number of animals)", "setting": "[9]", "result": "13 and 9 and 14"}]}
